Laboratory results: patent publication US12410160B2 (Gilead Sciences, Inc., priority 2021, dated 2025)

Key:
human KHK-C = human KHK-C (Homo sapiens (Human), UniProt P50053); assay: KHK Biochemical Assay (IC50), ADP-Glo, KHK-C; conditions: ADP-Glo; average of at least two separate assays
Summary of the method: (§1)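 ADP-Glo luminescence measured ADP made over a 4 h room-temperature reaction of ATP plus fructose, started after 30 min compound–enzyme pre-incubation. Buffer: 50 mM Hepes pH 7.4, 140 mM KCl, 5 mM MgCl2, 0.01% Triton-X. Enzyme was His-tagged, BL21 (DE3)-expressed, Ni-NTA-purified; compounds in 1:3 DMSO dilution series.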

human KHK-A = human KHK-A (Homo sapiens (Human), UniProt P50053); assay: KHK Biochemical Assay (IC50), ADP-Glo, KHK-A; conditions: ADP-Glo; average of at least two separate assays
Summary of the method: as §1

Chain of human KHK-A (P50053 other isoform, or with tags, fused parts or gaps): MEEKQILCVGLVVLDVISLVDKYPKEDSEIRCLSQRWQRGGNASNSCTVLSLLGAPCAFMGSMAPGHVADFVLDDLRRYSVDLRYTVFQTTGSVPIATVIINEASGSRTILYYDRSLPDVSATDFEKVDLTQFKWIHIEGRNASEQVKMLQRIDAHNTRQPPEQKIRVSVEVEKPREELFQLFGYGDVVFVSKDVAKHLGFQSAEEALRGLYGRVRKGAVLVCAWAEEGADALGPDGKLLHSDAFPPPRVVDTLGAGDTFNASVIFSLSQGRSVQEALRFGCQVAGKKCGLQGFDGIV
Chain of human KHK-C (P50053 whole entry): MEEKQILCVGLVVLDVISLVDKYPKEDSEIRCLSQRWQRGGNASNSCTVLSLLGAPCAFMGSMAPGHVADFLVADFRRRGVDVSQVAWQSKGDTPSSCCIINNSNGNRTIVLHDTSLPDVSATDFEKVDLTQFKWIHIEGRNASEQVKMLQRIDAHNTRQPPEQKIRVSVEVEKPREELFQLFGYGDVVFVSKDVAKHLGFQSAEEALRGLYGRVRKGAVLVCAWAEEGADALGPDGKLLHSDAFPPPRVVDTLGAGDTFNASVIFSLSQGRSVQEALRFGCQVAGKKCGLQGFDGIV

## C[C@H]1CCN1c1nc2c(c(-c3cccc(C45CCC(C4)C5C(=O)O)c3)n1)CCC2 (stereo partly drawn) [Example 115, 1-(3-(2-((S)-2-methylazetidin-1-yl)-6,7-dihydro-5H-cyclopenta[d]pyrimidin-4-yl)phenyl)bicyclo[2.1.1]hexane-5-carboxylic acid]
Human KHK-C
  IC50: 109 nM
Human KHK-A
  IC50: 94.1 nM

## C[C@H]1CCN1c1nc2c(c(-c3cc(C(N)=O)cc(C(N)=O)c3)n1)CCC2 [Example 116, (S)-5-(2-(2-methylazetidin-1-yl)-6,7-dihydro-5H-cyclopenta[d]pyrimidin-4-yl)isophthalamide]
Human KHK-C
  IC50: 39.8 nM
Human KHK-A
  IC50: 54.6 nM

## CC1=C(c2nc3c(c(-c4ccc(C(N)=O)cc4)n2)CCC3)CCC1=O [Example 117, 4-(2-(2-methyl-3-oxocyclopent-1-en-1-yl)-6,7-dihydro-5H-cyclopenta[d]pyrimidin-4-yl)benzamide]
Human KHK-C
  IC50: 3780 nM
Human KHK-A
  IC50: 4780 nM

## C[C@H]1CCN1c1nc2c(c(-c3ccc4c(O)n[nH]c4c3)n1)CCC2 [Example 120, (S)-6-(2-(2-methylazetidin-1-yl)-6,7-dihydro-5H-cyclopenta[d]pyrimidin-4-yl)-1H-indazol-3-ol]
Human KHK-C
  IC50: 42.7 nM
Human KHK-A
  IC50: 46.1 nM

## C[C@H]1[C@H](O)CN1c1nc2c(c(-c3ccc4c(c3)CN(C)C4=O)n1)CCC2 [Example 194, 5-[2-[(2S,3R)-3-hydroxy-2-methyl-azetidin-1-yl]-6,7-dihydro-5H-cyclopenta[d]pyrimidin-4-yl]-2-methyl-isoindolin-1-one]
Human KHK-C
  IC50: 219 nM
Human KHK-A
  IC50: 308 nM

## C[C@H]1[C@H](F)CN1c1nc2c(c(-c3ccc(S(N)(=O)=O)cc3)n1)CCC2 [Example 198, 4-[2-[(2S,3R)-3-fluoro-2-methyl-azetidin-1-yl]-6,7-dihydro-5H-cyclopenta[d]pyrimidin-4-yl]benzenesulfonamide]
Human KHK-C
  IC50: 98.3 nM
Human KHK-A
  IC50: 124 nM

## C[C@H]1[C@H](O)CN1c1nc2c(c(-c3ccc(S(N)(=O)=O)cc3)n1)CCC2 [Example 199, 4-[2-[(2S,3R)-3-hydroxy-2-methyl-azetidin-1-yl]-6,7-dihydro-5H-cyclopenta[d]pyrimidin-4-yl]benzenesulfonamide]
Human KHK-C
  IC50: 149 nM
Human KHK-A
  IC50: 282 nM

## C[C@H]1CCN1c1nc2c(c(-c3cncc(S(N)(=O)=O)c3)n1)CCC2 [Example 205, 5-[2-[(2S)-2-methylazetidin-1-yl]-6,7-dihydro-5H-cyclopenta[d]pyrimidin-4-yl]pyridine-3-sulfonamide]
Human KHK-C
  IC50: 108 nM
Human KHK-A
  IC50: 79.9 nM

## C[C@H]1CCN1c1nc(-c2ccccc2)c2cccnc2n1 [Example 212, 2-[(2S)-2-methylazetidin-1-yl]-4-phenyl-pyrido[2,3-d]pyrimidine]
Human KHK-C
  IC50: 5590 nM
Human KHK-A
  IC50: 10500 nM

## CNS(=O)(=O)c1cccc(-c2nc(N3CC[C@@H]3C)nc3c2CCC3)c1 [Example 214, N-methyl-3-[2-[(2S)-2-methylazetidin-1-yl]-6,7-dihydro-5H-cyclopenta[d]pyrimidin-4-yl]benzenesulfonamide]
Human KHK-C
  IC50: 37.7 nM
Human KHK-A
  IC50: 37.5 nM

## C[C@H]1CCN1c1nc2c(c(-c3cccc(S(=O)(=O)N(C)C)c3)n1)CCC2 [Example 215, N,N-dimethyl-3-[2-[(2S)-2-methylazetidin-1-yl]-6,7-dihydro-5H-cyclopenta[d]pyrimidin-4-yl]benzenesulfonamide]
Human KHK-C
  IC50: 106 nM
Human KHK-A
  IC50: 78.9 nM

## C[C@H]1CCN1c1nc2c(c(-c3cccc(C(=O)NCc4ccccc4)c3)n1)CCC2 [Example 218, N-benzyl-3-[2-[(2S)-2-methylazetidin-1-yl]-6,7-dihydro-5H-cyclopenta[d]pyrimidin-4-yl]benzamide]
Human KHK-C
  IC50: 485 nM
Human KHK-A
  IC50: 418 nM

## C[C@H]1CCN1c1nc2c(c(-c3ccc4c(c3)CCN(C)C4=O)n1)CCC2 [Example 222, (S)-2-methyl-6-(2-(2-methylazetidin-1-yl)-6,7-dihydro-5H-cyclopenta[d]pyrimidin-4-yl)-3,4-dihydroisoquinolin-1(2H)-one]
Human KHK-C
  IC50: 79.2 nM
Human KHK-A
  IC50: 75.1 nM

## C[C@H]1CCN1c1nc2c(c(-c3cccc(CNC(=O)C(C)(C)O)c3)n1)CCC2 [Example 228, 2-hydroxy-2-methyl-N-[[3-[2-[(2S)-2-methylazetidin-1-yl]-6,7-dihydro-5H-cyclopenta[d]pyrimidin-4-yl]phenyl]methyl]propanamide]
Human KHK-C
  IC50: 143 nM
Human KHK-A
  IC50: 159 nM

## C[C@@H](O)C(=O)NCc1cccc(-c2nc(N3CC[C@@H]3C)nc3c2CCC3)c1 [Example 229, (2R)-2-hydroxy-N-[[3-[2-[(2S)-2-methylazetidin-1-yl]-6,7-dihydro-5H-cyclopenta[d]pyrimidin-4-yl]phenyl]methyl]propanamide]
Human KHK-C
  IC50: 95.7 nM
Human KHK-A
  IC50: 108 nM

## C[C@H](O)C(=O)NCc1cccc(-c2nc(N3CC[C@@H]3C)nc3c2CCC3)c1 [Example 230, (2S)-2-hydroxy-N-[[3-[2-[(2S)-2-methylazetidin-1-yl]-6,7-dihydro-5H-cyclopenta[d]pyrimidin-4-yl]phenyl]methyl]propanamide]
Human KHK-C
  IC50: 107 nM
Human KHK-A
  IC50: 96.7 nM

## C[C@H]1CCN1c1nc2c(c(-c3ccc(C4CNC4)cc3)n1)CCC2 [Example 233, 4-[4-(azetidin-3-yl)phenyl]-2-[(2S)-2-methylazetidin-1-yl]-6,7-dihydro-5H-cyclopenta[d]pyrimidine]
Human KHK-C
  IC50: 9.7 nM
Human KHK-A
  IC50: 55.7 nM

## C[C@H]1CCN1c1nc2c(c(-c3ccc4c(c3)C(=O)NS4(=O)=O)n1)CCC2 [Example 239, (S)-5-(2-(2-methylazetidin-1-yl)-6,7-dihydro-5H-cyclopenta[d]pyrimidin-4-yl)benzo[d]isothiazol-3(2H)-one 1,1-dioxide]
Human KHK-C
  IC50: 70.6 nM
Human KHK-A
  IC50: 117 nM

## C[C@H]1CCN1c1nc2c(c(-c3ccc4nc(C(F)(F)F)[nH]c4c3)n1)CCC2 [Example 241, 6-[2-[(2S)-2-methylazetidin-1-yl]-6,7-dihydro-5H-cyclopenta[d]pyrimidin-4-yl]-2-(trifluoromethyl)-1H-benzimidazole]
Human KHK-C
  IC50: 1070 nM
Human KHK-A
  IC50: 803 nM

## C[C@H]1CCN1c1nc2c(c(-c3ccc(CS(N)(=O)=O)cc3)n1)CCC2 [Example 242, [4-[2-[(2S)-2-methylazetidin-1-yl]-6,7-dihydro-5H-cyclopenta[d]pyrimidin-4-yl]phenyl]methanesulfonamide]
Human KHK-C
  IC50: 135 nM
Human KHK-A
  IC50: 98.6 nM

## C[C@H]1CCN1c1nc2c(c(-c3ccc4[nH]nc(C(F)(F)F)c4c3)n1)CCC2 [Example 243, 5-[2-[(2S)-2-methylazetidin-1-yl]-6,7-dihydro-5H-cyclopenta[d]pyrimidin-4-yl]-3-(trifluoromethyl)-1H-indazole]
Human KHK-C
  IC50: > 5000 nM
Human KHK-A
  IC50: > 5000 nM

## C[C@H]1CCN1c1nc2c(c(-c3cnn(C(F)F)c3)n1)CCC2 [Example 259, 4-[1-(difluoromethyl)pyrazol-4-yl]-2-[(2S)-2-methylazetidin-1-yl]-6,7-dihydro-5H-cyclopenta[d]pyrimidine]
Human KHK-C
  IC50: 312 nM
Human KHK-A
  IC50: 380 nM

## C[C@H]1CCN1c1nc2c(c(-c3ccccc3O)n1)CCC2 [Example 260, 2-[2-[(2S)-2-methylazetidin-1-yl]-6,7-dihydro-5H-cyclopenta[d]pyrimidin-4-yl]phenol]
Human KHK-C
  IC50: 633 nM
Human KHK-A
  IC50: 746 nM

## C[C@H]1CCN1c1nc2c(c(-c3cccc(O)c3)n1)CCC2 [Example 261, 3-[2-[(2S)-2-methylazetidin-1-yl]-6,7-dihydro-5H-cyclopenta[d]pyrimidin-4-yl]phenol]
Human KHK-C
  IC50: 153 nM
Human KHK-A
  IC50: 133 nM

## C[C@H]1CCN1c1nc2c(c(-c3ccc(O)cc3)n1)CCC2 [Example 262, 4-[2-[(2S)-2-methylazetidin-1-yl]-6,7-dihydro-5H-cyclopenta[d]pyrimidin-4-yl]phenol]
Human KHK-C
  IC50: 141 nM
Human KHK-A
  IC50: 180 nM

## C[C@H]1CCN1c1nc2c(c(-c3ccc4c(c3)NC(=O)C4(C)C)n1)CCC2 [Example 264, 3,3-dimethyl-6-[2-[(2S)-2-methylazetidin-1-yl]-6,7-dihydro-5H-cyclopenta[d]pyrimidin-4-yl]indolin-2-one]
Human KHK-C
  IC50: 646 nM
Human KHK-A
  IC50: 758 nM

## C[C@H]1CCN1c1nc(-c2ccns2)c2c(n1)C1CC1C2 (stereo partly drawn) [Example 273, 5-(2-((S)-2-methylazetidin-1-yl)-5,5a,6,6a-tetrahydrocyclopropa[4,5]cyclopenta[1,241]pyrimidin-4-yl)isothiazole]
Human KHK-C
  IC50: 532 nM
Human KHK-A
  IC50: 433 nM

## C[C@H]1CCN1c1nc2c(c(-c3cccc(-c4ccn[nH]4)c3)n1)CCC2 [Example 279, (S)-4-(3-(1H-pyrazol-5-yl)phenyl)-2-(2-methylazetidin-1-yl)-6,7-dihydro-5H-cyclopenta[d]pyrimidine]
Human KHK-C
  IC50: 201 nM
Human KHK-A
  IC50: 159 nM

## CNC(=O)c1ccc(-c2nc(N3CC[C@@H]3C)nc3c2CCC3)cn1 [Example 280, (S)—N-methyl-5-(2-(2-methylazetidin-1-yl)-6,7-dihydro-5H-cyclopenta[d]pyrimidin-4-yl)picolinamide]
Human KHK-C
  IC50: 188 nM
Human KHK-A
  IC50: 122 nM

## C[C@H]1CCN1c1nc2c(c(-c3ccnc(NCCO)c3)n1)CCC2 [Example 282]
Human KHK-C
  IC50: 48.2 nM
Human KHK-A
  IC50: 42.6 nM

## C[C@H]1[C@H](O)CN1c1nc2c(c(-c3cccc(S(N)(=O)=O)c3)n1)CCOC2 [Example 286]
Human KHK-C
  IC50: 753 nM
Human KHK-A
  IC50: 718 nM

## C[C@H]1CCN1c1nc2c(c(-c3ccc(N4CCOCC4)nc3)n1)CCC2 [Example 291, (S)-4-(5-(2-(2-methylazetidin-1-yl)-6,7-dihydro-5H-cyclopenta[d]pyrimidin-4-yl)pyridin-2-yl)morpholine]
Human KHK-C
  IC50: 98 nM
Human KHK-A
  IC50: 141 nM

## CNC(=O)c1ccc(-c2nc(N3CC[C@@H]3C)nc3c2CCC3)cc1 [Example 292, (S)—N-methyl-4-(2-(2-methylazetidin-1-yl)-6,7-dihydro-5H-cyclopenta[d]pyrimidin-4-yl)benzamide]
Human KHK-C
  IC50: 89.1 nM
Human KHK-A
  IC50: 65.7 nM
